Results on 29 compounds are retold here after patent US20260166039A1 (SCHRÖDINGER, INC., priority 2022, published 2026).

One may read the IC50 as the concentration that gives 50% inhibition.

The target in assay [1] is T1, Wee1 kinase domain (Homo sapiens, UniProt P30291).
T1 construct: Wee1 kinase domain was purchased from Carna (catalog #05-177); purchased Carna 05-177
The assay is described as follows: Wee1 Kinase Biochemical Assay (ADP-Glo). To be noted: 15 uM ATP. Put shortly: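 ADP-Glo detection of ADP produced after 4 h at 25° C by 1 nM Wee1 kinase domain on 2 ng/mL poly(Lys,Tyr 4:1) with 15 uM ATP. Buffer: 40 mM Tris-HCl, 20 mM MgCl2, 0.1 mg/mL BSA, 2 mM DTT. Inhibition is relative to DMSO (high) and saturating Wee1 inhibitor (low) controls.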
A general note: ADP-Glo first removes unused ATP, then detects ADP through luciferase.

Assay [2] concerns phosphorylation of Cdc2 Y15 (Wee1 substrate) in A427 cells. The assay is described as follows: Phosphorylated Cdc2 MSD Electrochemiluminescence Assay. It counts as cell-based. To be noted: Homo sapiens. Put shortly:
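Read-out: percent residual phospho-Cdc2 Y15 relative to DMSO and positive-control Wee1 inhibitor, measured by MSD electrochemiluminescence capture/detection antibody assay in cell lysates. A427 cells received duplicate 3-fold compound dilution series 20 h post-seeding, with 6 h total incubation at 37 °C.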

[3] abbreviates: class symbols, 1 nM Wee1 enzyme, 4 hours at 25° C.
Setting [4] is: A-427, class symbols, read-out: A427 pCDC2 MSD IC50.

Molecules are shown by their SMILES. Read-outs that look alike come from different tables or passages of the source.

T1 sequence (P30291 299-569 limits assumed): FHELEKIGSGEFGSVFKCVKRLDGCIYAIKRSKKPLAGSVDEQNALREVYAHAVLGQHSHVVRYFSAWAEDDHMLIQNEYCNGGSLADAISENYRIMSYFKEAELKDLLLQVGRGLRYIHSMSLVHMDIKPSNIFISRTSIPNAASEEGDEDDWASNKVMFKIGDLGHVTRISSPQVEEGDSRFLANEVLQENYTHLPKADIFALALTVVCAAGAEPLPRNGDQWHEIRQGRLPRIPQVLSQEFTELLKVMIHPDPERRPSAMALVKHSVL

In the case of `CN1[C@@H]2C[C@H]1CN(c1ccc(Nc3ncc4c(n3)N(c3cccc(N5CCCC5=O)n3)[C@@H]3CC(C)(C)OC[C@]43C)cc1)C2` [Example 703, 1-(6-((4bR,8aR)-4b,7,7-trimethyl-2-((4-((1R,5S)-6-methyl-3,6-diazabicyclo[3.1.1]heptan-3-yl)phenyl)amino)-4b,7,8,8a-tetrahydropyrano[3′,4′:4,5]pyrrolo[2,3-d]pyrimidin-9(5H)-yl)pyridin-2-yl)pyrrolidin-2-one], the IC50 was less than 10 nM in assay [1] (setting [3]) and 100 to 1000 nM in assay [2] (setting [4]).
`CN1CC[C@@H](n2ccc(Nc3ncc4c(n3)N(c3cccc(N=S(C)(C)=O)n3)[C@@H]3CC(C)(C)OC[C@]43C)n2)C1` (single isomer, unassigned) [Example 227]: the IC50 is less than 10 nM in assay [1] (Wee1 kinase domain, ADP-Glo) and 1000 to 10000 nM in assay [2] (A-427, pCDC2 MSD).
`CN1C[C@@H]2C[C@H]1CN2c1ccc(Nc2ncc3c(n2)N(c2cccc(C(C)(C)O)n2)[C@@H]2CC(C)(C)OC[C@]32C)cc1F` (single isomer, unassigned) [Example 431]: the IC50 in assay [1] (setting [3]) is less than 10 nM; in assay [2] (setting [4]), 100 to 1000 nM.
As for `CNCc1cccc(N2c3nc(Nc4ccc(N5CCCCC5)cc4)ncc3[C@@]3(C)COC(C)(C)C[C@@H]23)n1` (single isomer, unassigned) [Example 2], the IC50 was less than 10 nM in assay [1] (Wee1 kinase domain, ADP-Glo) and 100 to 1000 nM in assay [2] (A-427, pCDC2 MSD).
On to `CC1(C)C[C@H]2N(c3ccc4c(n3)CCNC4)c3nc(Nc4ccc(N5CCOCC5)cc4)ncc3[C@@]2(C)CO1` (single isomer, unassigned) [Example 562], for which the IC50 in assay [1] (setting [3]) was less than 10 nM; in assay [2] (setting [4]) it was 100 to 1000 nM.
In the case of `C[C@H]1COC(=O)N1c1cccc(N2c3nc(Nc4ccc(N5C[C@@H]6C[C@H]5CN6C)cc4)ncc3[C@@]3(C)COC(C)(C)C[C@@H]23)n1` (single isomer, unassigned) [Example 245], the IC50 was less than 10 nM in assay [1] (Wee1 kinase domain, ADP-Glo) and 100 to 1000 nM in assay [2] (A-427, pCDC2 MSD).
As to `CC1(C)C[C@H]2N(c3ccc4c(n3)[C@](C)(N)CC4)c3nc(Nc4ccc(N5CCOCC5)cc4)ncc3[C@@]2(C)CO1` (single isomer, unassigned) [Example 564], the IC50 was less than 10 nM in assay [1] (setting [3]) and less than 100 nM in assay [2] (setting [4]).
For `CN1C[C@H]2C[C@@H]1CN2c1ccc(Nc2ncc3c(n2)N(c2cccc(N=S(C)(C)=O)c2)[C@@H]2CC(C)(C)OC[C@]32C)cc1` [Example 713, dimethyl((3-((4bR,8aR)-4b,7,7-trimethyl-2-((4-((1R,4R)-5-methyl-2,5-diazabicyclo[2.2.1]heptan-2-yl)phenyl)amino)-4b,7,8,8a-tetrahydropyrano[3′,4′:4,5]pyrrolo[2,3-d]pyrimidin-9(5H)-yl)phenyl)imino)-16-sulfanone], the IC50 in assay [1] (setting [3]) was less than 10 nM; in assay [2] (setting [4]) it was 100 to 1000 nM.
For the compound `CN1CCCN(c2ccc(Nc3ncc4c(n3)N(c3cccc(N=S(C)(C)=O)n3)[C@@H]3CC(C)(C)OC[C@]43C)cc2)CC1` (single isomer, unassigned) [Example 501], the IC50 in assay [1] (setting [3]) is less than 10 nM; in assay [2] (setting [4]), less than 100 nM.
For `C[C@H]1COC(=O)N1c1cccc(N2c3nc(Nc4ccn(C5CCOCC5)c(=O)c4)ncc3[C@@]3(C)COC(C)(C)C[C@@H]23)n1` (single isomer, unassigned) [Example 781], in that order: less than 10 nM and 100 to 1000 nM.
Regarding `C[C@H]1COC(=O)N1c1cccc(N2c3nc(Nc4ccc(N5C[C@H]6C[C@@H]5CN6C)cc4)ncc3[C@]3(C)COC(C)(C)C[C@H]23)n1` (single isomer, unassigned) [Example 246], the IC50 was in the range of 10 to 100 nM in assay [1] (Wee1 kinase domain, ADP-Glo) and 1000 to 10000 nM in assay [2] (A-427, pCDC2 MSD).
`CN1CC2CC1CN2c1ccc(Nc2ncc3c(n2)N(c2cccc(N=S(C)(C)=O)c2)C2CC(C)(C)OCC32C)cc1` (single isomer, unassigned) [Example 712]: the results for the IC50 in assay [1] (setting [3]) and in assay [2] (setting [4]) were less than 10 nM and 1000 to 10000 nM, respectively.
With `CNCc1cccc(N2c3nc(Nc4ccc([C@H]5CC(=O)N(C)C5)cc4)ncc3[C@@]3(C)COC(C)(C)C[C@@H]23)n1` (single isomer, unassigned) [Example 68], the IC50 was less than 10 nM in assay [1] (Wee1 kinase domain, ADP-Glo) and 100 to 1000 nM in assay [2] (A-427, pCDC2 MSD).
Take `CN1C[C@H]2C[C@@H]1CN2c1ccc(Nc2ncc3c(n2)N(c2cccc(N4CCCC4=O)n2)[C@@H]2CC(C)(C)OC[C@]32C)cc1F` [Example 638, 1-(6-((4bR,8aR)-2-((3-fluoro-4-((1R,4R)-5-methyl-2,5-diazabicyclo[2.2.1]heptan-2-yl)phenyl)amino)-4b,7,7-trimethyl-4b,7,8,8a-tetrahydropyrano[3′,4′:4,5]pyrrolo[2,3-d]pyrimidin-9(5H)-yl)pyridin-2-yl)pyrrolidin-2-one]: the results for the IC50 in assay [1] (setting [3]) and in assay [2] (setting [4]) were less than 10 nM and 100 to 1000 nM, respectively.
Take `C[C@H]1CCC(=O)N1c1cccc(N2c3nc(Nc4ccc(N5CC6(CN(C)C6)C5)cc4)ncc3[C@@]3(C)COC(C)(C)C[C@@H]23)n1` (single isomer, unassigned) [Example 725]: the IC50 was less than 10 nM in assay [1] (setting [3]) and 100 to 1000 nM in assay [2] (setting [4]).
With `CN1C[C@@H]2CN(c3ccc(Nc4ncc5c(n4)N(c4cccc(N=S(C)(C)=O)n4)[C@@H]4CC(C)(C)OC[C@]54C)cc3)C[C@@H]2C1` (single isomer, unassigned) [Example 217], the IC50 in assay [1] (Wee1 kinase domain, ADP-Glo) was less than 10 nM; in assay [2] (A-427, pCDC2 MSD), 100 to 1000 nM.
`CN1CCCC(n2cc(Nc3ncc4c(n3)N(c3cccc(N=S(C)(C)=O)n3)C3CC(C)(C)OCC43C)cn2)C1` (single isomer, unassigned) [Example 202]: the IC50 in assay [1] (Wee1 kinase domain, ADP-Glo) is less than 10 nM; in assay [2] (A-427, pCDC2 MSD), 100 to 1000 nM.
For `C[C@H]1COC(=O)N1c1cccc(N2c3nc(Nc4ccc([C@@H]5CCN(C)C5)nc4)ncc3[C@]3(C)COC(C)(C)C[C@H]23)n1` (single isomer, unassigned) [Example 264], the IC50 fell in the range of 10 to 100 nM in assay [1] (Wee1 kinase domain, ADP-Glo) and 100 to 1000 nM in assay [2] (A-427, pCDC2 MSD).
For `CN1CCC(c2ccc(Nc3ncc4c(n3)N(c3cccc(N=S(C)(C)=O)n3)[C@@H]3CC(C)(C)OC[C@]43C)cc2F)CC1` (single isomer, unassigned) [Example 177] the same measures were less than 10 nM and 100 to 1000 nM.
Consider `Cc1cc(Nc2ncc3c(n2)N(c2cccc(N4CCOC4=O)n2)[C@@H]2CC(C)(C)OC[C@]32C)ccc1N1C[C@H]2C[C@@H]1CN2C` [Example 660, 3-(6-((4bR,8aR)-4b,7,7-trimethyl-2-((3-methyl-4-((1R,4R)-5-methyl-2,5-diazabicyclo[2.2.1]heptan-2-yl)phenyl)amino)-4b,7,8,8a-tetrahydropyrano[3′,4′:4,5]pyrrolo[2,3-d]pyrimidin-9(5H)-yl)pyridin-2-yl)oxazolidin-2-one], for which the values for the IC50 in assay [1] (setting [3]) and in assay [2] (setting [4]) were less than 10 nM and 100 to 1000 nM, respectively.
For `CC1(C)C[C@H]2N(c3cccc(C(C)(C)N)n3)c3nc(Nc4ccc(N5CCOCC5)cc4)ncc3[C@@]2(C)CO1` (single isomer, unassigned) [Example 567] the same measures were less than 10 nM and less than 100 nM.
Consider `CN1CCC[C@@H]1c1ccc(Nc2ncc3c(n2)N(c2cccc(N=S(C)(C)=O)n2)[C@@H]2CC(C)(C)OC[C@]32C)cn1` (single isomer, unassigned) [Example 210], for which the IC50 in assay [1] (Wee1 kinase domain, ADP-Glo) is less than 10 nM; in assay [2] (A-427, pCDC2 MSD), 100 to 1000 nM.
With `CN1CC[C@@H]2CN(c3ccc(Nc4ncc5c(n4)N(c4cccc(N6CCOC6=O)n4)[C@@H]4CC(C)(C)OC[C@]54C)cc3)C[C@@H]21` [Example 705, 3-(6-((4bR,8aR)-4b,7,7-trimethyl-2-((4-((3aR,6aR)-1-methylhexahydropyrrolo[3,4-b]pyrrol-5(1H)-yl)phenyl)amino)-4b,7,8,8a-tetrahydropyrano[3′,4′:4,5]pyrrolo[2,3-d]pyrimidin-9(5H)-yl)pyridin-2-yl)oxazolidin-2-one], the IC50 in assay [1] (setting [3]) was less than 10 nM; in assay [2] (setting [4]), 100 to 1000 nM.
In the case of `CC1(C)CC2N(c3cccc(N=S(C)(C)=O)n3)c3nc(Nc4ccc(N5CCOCC5)cc4)ncc3C2(C)CO1` (single isomer, unassigned) [Example 496], the IC50 in assay [1] (setting [3]) was less than 10 nM; in assay [2] (setting [4]) it was 100 to 1000 nM.
Turning to `CN1CC[C@@H](Oc2ccc(Nc3ncc4c(n3)N(c3cccc(N5CCCC5=O)n3)[C@@H]3CC(C)(C)OC[C@]43C)cc2)C1` [Example 626, 1-(6-((4bR,8aR)-4b,7,7-trimethyl-2-((4-(((R)-1-methylpyrrolidin-3-yl)oxy)phenyl)amino)-4b,7,8,8a-tetrahydropyrano[3′,4′:4,5]pyrrolo[2,3-d]pyrimidin-9(5H)-yl)pyridin-2-yl)pyrrolidin-2-one], the IC50 in assay [1] (setting [3]) was less than 10 nM; in assay [2] (setting [4]), 100 to 1000 nM.
As for `CC1(C)C[C@H]2N(c3cccc(N=S(C)(C)=O)n3)c3nc(Nc4ccn([C@@H]5CCOC5)c(=O)c4)ncc3[C@@]2(C)CO1` (single isomer, unassigned) [Example 375], the IC50 is less than 10 nM in assay [1] (Wee1 kinase domain, ADP-Glo) and 100 to 1000 nM in assay [2] (A-427, pCDC2 MSD).
Consider `CNCc1cccc(N2c3nc(Nc4ccc(N5C6CCC5COC6)c(C)c4)ncc3[C@@]3(C)COC(C)(C)C[C@@H]23)n1` (single isomer, unassigned) [Example 85], for which the IC50 in assay [1] (Wee1 kinase domain, ADP-Glo) is less than 10 nM; in assay [2] (A-427, pCDC2 MSD) it was 100 to 1000 nM.
For the compound `CN[C@]1(C)CCc2ccc(N3c4nc(Nc5ccc(N6CCOCC6)cc5)ncc4[C@@]4(C)COC(C)(C)C[C@@H]34)nc21` (single isomer, unassigned) [Example 569], the results for the IC50 in assay [1] (setting [3]) and in assay [2] (setting [4]) were less than 10 nM and less than 100 nM, respectively.
For `CN[C@H]1CCN(c2ccc(Nc3ncc4c(n3)N(c3cccc(N5C(=O)OC[C@@H]5C)n3)[C@@H]3CC(C)(C)OC[C@]43C)cc2)C1` (single isomer, unassigned) [Example 317], the IC50 in assay [1] (Wee1 kinase domain, ADP-Glo) was less than 10 nM; in assay [2] (A-427, pCDC2 MSD) it was 100 to 1000 nM.
